Data as given in patent US20250327074A1 (SHAOXING INSTITUTE, ZHEJIANG UNIVERSITY, priority 2024, published 2025).

system: TCG codon, mammalian cells; test: TCG codon recoding efficiency of all amino acids (Table 1); format: cell-based; conditions: TCG codon recoding of the unnatural amino acid with the aaRS and mutation of the same table line; class symbols
Text: Specific details are shown in Table 1 below, where “wt” represents the wild-type aminoacyl-tRNA synthetase, “mutation sites” indicate the positions and types of mutations related to specific unnatural amino acid binding on the wild-type aminoacyl-tRNA synthetase, and “unnatural amino acid” represents the unnatural amino acid corresponding to the mutated aminoacyl-tRNA synthetase. In the unnatural amino acid encoding efficiency, “+” indicates a recoding efficiency greater than 40%, “++” greater than 60%, and “+++” greater than 80%.
Accordingly, this application compiles all amino acids reported in the literature that are recognized by orthogonal aminoacyl-tRNA synthetases in mammalian systems and evaluates their recoding efficiency using the TCG codon as an example.

Row | SMILES | Recoding rate (%)
1 | CCCCC=Cc1ccc(C[C@H](N)C(=O)O)cc1 [compound 314] | ++ (“++” greater than 60%)
2 | CCCCC=Cc1ccc(C[C@H](N)C(=O)O)cc1 [compound 315] | +++ (“+++” greater than 80%)
3 | N[C@@H](Cc1ccc(C#CCCCBr)cc1)C(=O)O [compound 316] | ++ (“++” greater than 60%)
4 | N[C@@H](Cc1ccc(C#CCCCCCBr)cc1)C(=O)O [compound 317] | + (“+” indicates a recoding efficiency greater than 40%)
5 | N[C@@H](Cc1ccc(C#CCc2ccccc2)cc1)C(=O)O [compound 318] | +++ (“+++” greater than 80%)
6 | N[C@@H](Cc1ccc(C#CCCCc2ccccc2)cc1)C(=O)O [compound 320] | ++ (“++” greater than 60%)
7 | N[C@@H](Cc1ccc(C=CCCc2ccc3ccccc3c2)cc1)C(=O)O [compound 321] | ++ (“++” greater than 60%)
8 | N[C@@H](Cc1ccc(C=CCCc2ccc3c(c2)CCC3)cc1)C(=O)O [compound 322] | ++ (“++” greater than 60%)
9 | C#Cc1cc(C[C@H](N)C(=O)O)ccc1OS(=O)(=O)F [compound 324] | ++ (“++” greater than 60%)
10 | C#CCn1cc(C[C@H](N)C(=O)O)c2ccccc21 [compound 326] | ++ (“++” greater than 60%)
11 | N[C@@H](Cc1ccc(O)c(I)c1)C(=O)O [compound 334] | +++ (“+++” greater than 80%)
12 | N[C@@H](Cc1ccc(C(=O)CF)cc1)C(=O)O [compound 338] | ++ (“++” greater than 60%)
13 | N[C@@H](Cc1ccc(C(=O)c2cccc(F)c2)cc1)C(=O)O [compound 340] | ++ (“++” greater than 60%)
14 | N[C@@H](Cc1ccc(C(=O)c2cccc(Cl)c2)cc1)C(=O)O [compound 341] | ++ (“++” greater than 60%)
15 | N[C@@H](Cc1ccc(C(=O)c2ccc(F)cc2)cc1)C(=O)O [compound 342] | ++ (“++” greater than 60%)
16 | N[C@@H](Cc1ccc(C(=O)c2ccc(Cl)cc2)cc1)C(=O)O [compound 343] | ++ (“++” greater than 60%)
17 | N[C@@H](Cc1ccc(C(=O)c2ccc(Br)cc2)cc1)C(=O)O [compound 344] | ++ (“++” greater than 60%)
18 | N[C@@H](Cc1ccc(C(=O)c2ccc(C(F)(F)F)cc2)cc1)C(=O)O [compound 345] | ++ (“++” greater than 60%)
19 | N[C@@H](CCc1cc(=O)oc2cc(O)ccc12)C(=O)O [compound 347] | ++ (“++” greater than 60%)
20 | [N-]=[N+]=NCCOc1ccc(C[C@H](N)C(=O)O)cc1 [compound 348] | ++ (“++” greater than 60%)
21 | [N-]=[N+]=NCCC(=O)Nc1ccc(C[C@H](N)C(=O)O)cc1 [compound 350] | +++ (“+++” greater than 80%)
22 | C#CCCC(=O)Nc1ccc(C[C@H](N)C(=O)O)cc1 [compound 351] | +++ (“+++” greater than 80%)
23 | C#CCC(=O)Nc1ccc(C[C@H](N)C(=O)O)cc1 [compound 352] | +++ (“+++” greater than 80%)
24 | C=CCCC(=O)Nc1ccc(C[C@H](N)C(=O)O)cc1 [compound 353] | +++ (“+++” greater than 80%)
25 | C=CCC(=O)Nc1ccc(C[C@H](N)C(=O)O)cc1 [compound 354] | +++ (“+++” greater than 80%)

Row | SMILES | Recoding rate (%)
26 | N[C@@H](Cc1ccc(NC(=O)CF)cc1)C(=O)O [compound 355] | +++ (“+++” greater than 80%)
27 | N[C@@H](Cc1ccc(NC(=O)CCl)cc1)C(=O)O [compound 356] | +++ (“+++” greater than 80%)
28 | N[C@@H](Cc1ccc(CC(=O)O)cc1)C(=O)O [compound 357] | ++ (“++” greater than 60%)
29 | N[C@@H](Cc1ccc(C(=O)CF)cc1)C(=O)O [compound 358] | +++ (“+++” greater than 80%)
30 | N[C@@H](Cc1ccc(OCCCl)cc1)C(=O)O [compound 364] | ++ (“++” greater than 60%)
31 | N[C@@H](Cc1ccc([N+](=O)[O-])cc1)C(=O)O [compound 367] | +++ (“+++” greater than 80%)
32 | N#Cc1ccc(C[C@H](N)C(=O)O)cc1 [compound 368] | +++ (“+++” greater than 80%)
33 | N[C@@H](CCCNC(=O)NCc1ccccc1[N+](=O)[O-])C(=O)O [compound 375] | ++ (“++” greater than 60%)
34 | CCCCCC[C@H](N)C(=O)O [compound 376] | ++ (“++” greater than 60%)
35 | CC(=O)CCCSC[C@H](N)C(=O)O [compound 377] | ++ (“++” greater than 60%)
36 | C=CCCCCSC[C@H](N)C(=O)O [compound 378] | ++ (“++” greater than 60%)
37 | CCCCCCSC[C@H](N)C(=O)O [compound 379] | ++ (“++” greater than 60%)
38 | CCCCSC[C@H](N)C(=O)O [compound 380] | ++ (“++” greater than 60%)
39 | CCCCCCCCSC[C@H](N)C(=O)O [compound 384] | ++ (“++” greater than 60%)
40 | C#CCCCSC[C@H](N)C(=O)O [compound 385] | ++ (“++” greater than 60%)
41 | [N-]=[N+]=NCCCSC[C@H](N)C(=O)O [compound 387] | ++ (“++” greater than 60%)
42 | [N-]=[N+]=NCCCCSC[C@H](N)C(=O)O [compound 388] | ++ (“++” greater than 60%)
43 | [N-]=[N+]=NCCCCCSC[C@H](N)C(=O)O [compound 389] | ++ (“++” greater than 60%)
44 | CC(=O)c1ccc2cc(NC[C@H](N)C(=O)O)ccc2c1 [compound 391] | ++ (“++” greater than 60%)
45 | N[C@@H](CNc1ccc2ccccc2c1)C(=O)O [compound 392] | ++ (“++” greater than 60%)
46 | CCSCCCC[C@H](N)C(=O)O [compound 393] | ++ (“++” greater than 60%)
47 | N[C@@H](CCCS)C(=O)O [compound 394] | ++ (“++” greater than 60%)
48 | N[C@@H](CCCCS)C(=O)O [compound 395] | ++ (“++” greater than 60%)
49 | N[C@@H](CSCc1ccccc1[N+](=O)[O-])C(=O)O [compound 401] | +++ (“+++” greater than 80%)

same assay, conditions: TCG codon recoding of the unnatural amino acid with the aaRS and mutation of the same table line; numeric values

Row | SMILES | Recoding rate (%)
50 | N[C@@H](Cc1ccc(O)c(O)c1)C(=O)O [compound 323] | 48
51 | C=Cn1cc(C[C@H](N)C(=O)O)c2ccccc21 [compound 325] | 59
52 | COc1ccc2c(C[C@H](N)C(=O)O)c[nH]c2c1 [compound 327] | 80
53 | N[C@@H](Cc1ccc(Br)cc1)C(=O)O [compound 328] | 51
54 | N[C@@H](Cc1cccc(I)c1)C(=O)O [compound 329] | 56
55 | N#Cc1ccc(C[C@H](N)C(=O)O)cc1 [compound 330] | 45
56 | N[C@@H](Cc1ccc(I)cc1)C(=O)O [compound 331] | 43
57 | COc1ccc(C[C@H](N)C(=O)O)cc1 [compound 332] | 73
58 | N[C@@H](Cc1ccc(OS(=O)(=O)O)cc1)C(=O)O [compound 335] | 85
59 | N[C@@H](Cc1ccc(OCCBr)cc1)C(=O)O [compound 337] | 60
60 | N[C@@H](Cc1ccc(C(=O)c2ccccc2)cc1)C(=O)O [compound 339] | 68
61 | N[C@@H](Cc1ccc(C(=O)c2ccccc2)cc1)C(=O)O [compound 346] | 74
62 | [N-]=[N+]=NCC(=O)Nc1ccc(C[C@H](N)C(=O)O)cc1 [compound 349] | 84
63 | CC(=O)c1ccc(C[C@H](N)C(=O)O)cc1 [compound 359] | 78
64 | [N-]=[N+]=Nc1ccc(C[C@H](N)C(=O)O)cc1 [compound 360] | 79
65 | Nc1cc(C[C@H](N)C(=O)O)ccc1O [compound 361] | 50
66 | N[C@@H](Cc1ccc(B(O)O)cc1)C(=O)O [compound 362] | 66
67 | C#CCOc1ccc(C[C@H](N)C(=O)O)cc1 [compound 363] | 78

Row | SMILES | Recoding rate (%)
68 | COc1ccc(C[C@H](N)C(=O)O)cc1 [compound 365] | 89
69 | N[C@@H](Cc1ccc(Br)cc1)C(=O)O [compound 366] | 63
70 | COc1ccc(C[C@H](N)C(=O)O)cc1 [compound 369] | 84
71 | N[C@@H](Cc1ccc(I)cc1)C(=O)O [compound 370] | 64
72 | N[C@@H](Cc1ccc(O)c(I)c1)C(=O)O [compound 371] | 73
73 | N[C@@H](Cc1ccc(OS(=O)(=O)F)cc1)C(=O)O [compound 372] | 70
74 | N[C@@H](Cc1ccc(OS(=O)(=O)F)cc1)C(=O)O [compound 373] | 68
75 | COc1ccc([N+](=O)[O-])c2c1CCN2C(=O)CC[C@H](N)C(=O)O [compound 374] | 43
76 | CCCCCSC[C@H](N)C(=O)O [compound 381] | 83
77 | CCCCCCSC[C@H](N)C(=O)O [compound 382] | 87
78 | CCCCCCCSC[C@H](N)C(=O)O [compound 383] | 74
79 | C#CCCCCSC[C@H](N)C(=O)O [compound 386] | 77
80 | CN(C)c1cccc2c(S(=O)(=O)NC[C@H](N)C(=O)O)cccc12 [compound 390] | 73
81 | CCCCCC[C@H](N)C(=O)O [compound 396] | 88
82 | CCCCCCC[C@H](N)C(=O)O [compound 397] | 92
83 | CCCCCCCC[C@H](N)C(=O)O [compound 398] | 85
84 | COc1ccc(C[C@H](N)C(=O)O)cc1 [compound 400] | 92
